From ChEMBL document CHEMBL1133524 (J Med Chem, 2000) come the findings set out here.

In brackets after ≈: the same amount, converted by molar mass. Activity calls are given as the source filed them. No cut-off for these calls is given here.

One assay has as its system A549. The class given is functional, Homo sapiens.
The test system of assay [1] is HCT-8. The assay can be described thus: Tested in vitro for cytotoxic activity against ileocecal carcinoma (HCT-8) cell line; NA means Not active. The following applies: Homo sapiens. The class given is functional, cell-based.
Assay [2] deals with HOS. Description: Tested in vitro for cytotoxic activity against bone(HOS) cell line; NA means Not active. The class given is functional, cell-based. The following applies: Homo sapiens.
The subject of assay [3] is 1A9. The assay can be described thus: Tested in vitro for cytotoxic activity against Human ovarian cancer (IA9) cell line; NA means Not active. The class given is functional, cell-based.
The test system of assay [4] is KB. Description: Tested in vitro for cytotoxic activity against epidermoid carcinoma of the nasopharynx(KB) cell line; NA means Not active. The format is functional, cell-based. The following applies: Homo sapiens.
Another assay deals with MCF7. Description: Tested in vitro for cytotoxic activity against breast cancer (MCF-7) cell line. The class given is functional, Homo sapiens.
Assay [5] concerns PC-3. The assay can be described thus: Tested in vitro for cytotoxic activity against prostate cancer (PC3) cell line. The format is functional, Homo sapiens.
In assay [6] the test system is SK-MEL-2. The assay can be described thus: Tested in vitro for cytotoxic activity against melanoma (SKMEL-2) cell line; NA means Not active. The class given is functional, cell-based. The following applies: Homo sapiens.
Assay [7] has as its system U-87 MG. The assay can be described thus: Tested in vitro for cytotoxic activity against glioblastoma (U-87-MG) cell line; NA means Not active. The following applies: Homo sapiens; U-87MG ATCC. The format is functional, cell-based.
Assay [8] relates to KB. Description: Tested in vitro for cytotoxic activity against P-glycoprotein-expressing epidermoid carcinoma of the nasopharynx(KB-VIN) cell line. The format is functional, Homo sapiens.
The test system of assay [9] is HCT-8. The assay can be described thus: Tested in vitro for cytotoxic activity against ileocecal carcinoma (HCT-8) cell line. The class given is functional, Homo sapiens.
Assay [10] has as its system HOS. The assay can be described thus: Tested in vitro for cytotoxic activity against bone(HOS) cell line. The class given is functional, Homo sapiens.
Assay [11] concerns 1A9. The assay can be described thus: Tested in vitro for cytotoxic activity against Human ovarian cancer (IA9) cell line. The format is functional.
Assay [12] relates to KB. The assay can be described thus: Tested in vitro for cytotoxic activity against epidermoid carcinoma of the nasopharynx(KB) cell line. The format is functional, Homo sapiens.
Assay [13] concerns SK-MEL-2. Description: Tested in vitro for cytotoxic activity against melanoma (SKMEL-2) cell line. The format is functional, Homo sapiens.
Assay [14] concerns U-87 MG. The assay can be described thus: Tested in vitro for cytotoxic activity against glioblastoma (U-87-MG) cell line;NA means not active. The following applies: Homo sapiens; U-87MG ATCC. The format is functional, cell-based.
The test system of assay [15] is 1A9. The assay can be described thus: Tested in vitro for cytotoxic activity against human ovarian cancer (IA9)cell line. The class given is functional.
Assay [16] concerns PC-3. The assay can be described thus: Tested in vitro for cytotoxic activity against prostate cancer (PC3) cell line; NA means Not active. The class given is functional, cell-based. The following applies: Homo sapiens.
The target in the next assay is Tubulin (Bos taurus, UniProt Q6B856+Q862L2+Q862F3). Description: Inhibition of bovine tubulin polymerization. The class given is functional.
A further assay has as its target Tubulin (Bos taurus) (UniProt Q6B856+Q862L2+Q862F3). The assay can be described thus: Tested for inhibition of radioligand colchicine binding to bovine tubulin. The format is protein assay. The following applies: concentration not given here.

Description for A549: Tested in vitro for cytotoxic activity against lung carcinoma (A-549) cell line

With `COc1cccc(-c2nc(O)c3ccccc3n2)c1OC`, the ED50 in the assay with A549 is over 20 µg/mL; in the assay on MCF7, 20 µg/mL (≈ 70.8 µM); in the assay with PC-3 [5], 20 µg/mL (≈ 70.8 µM); with KB [8], over 20 µg/mL. Besides, the ED50 result with HCT-8 [1], in the assay with HOS [2], with 1A9 [3], in the assay on KB [4], in the assay with SK-MEL-2 [6] and in the assay with U-87 MG [7] was “inactive” throughout.
With `COc1ccc(-c2nc(O)c3ccccc3n2)cc1`, the ED50 in the assay on A549, in the assay with HCT-8 [9], with HOS [10], in the assay with 1A9 [11], in the assay on KB [12] and in the assay with MCF7 was over 20 µg/mL in each case. Further, the ED50 in the assay on PC-3 [5], with SK-MEL-2 [13] and in the assay with KB [8] was over 20 µg/mL throughout. Also, the ED50 result with U-87 MG [14] was “inactive”.
`COc1ccccc1-c1nc(O)c2ccccc2n1`: the ED50 in the assay with A549, in the assay on HOS [10], in the assay with 1A9 [15], with KB [12], with MCF7 and in the assay with KB [8] was over 20 µg/mL in each case. The ED50 result in the assay on HCT-8 [1], in the assay with SK-MEL-2 [6], in the assay with U-87 MG [7] and in the assay on PC-3 [16] was “inactive” each time.
A word on the Inhibition: it is the percentage by which the read-out fell short of the control. A low value points to little suppression. The term IC50 denotes the concentration needed to halve the response being measured. A lower IC50 goes with greater potency in that assay. Turning to `COc1cccc(C2NC(=O)c3ccccc3N2)c1OC` (configuration not stated), the ED50 with A549, in the assay with HCT-8 [9], in the assay on HOS [10], with KB [12], with MCF7 and in the assay on PC-3 [5] was over 20 µg/mL in each case. Further, the ED50 with SK-MEL-2 [13] is under 20 µg/mL; with KB [8], 8.6 µg/mL (≈ 30.2 µM). For the same compound, the Inhibition was 41% with KB [12] and 20% in the assay on PC-3 [5]. Moreover, in the assay on U-87 MG [14], the ED50 entry is “inactive”. This compound also displayed an IC50 on Tubulin of over 40 µM.
As a reminder, the inhibition is the drop in the measured response relative to a control, in per cent. Read a high inhibition as strong suppression. As to `COc1cccc(-c2nc(O)c3cc(N4CCCC4)ccc3n2)c1`, the ED50 came out at 0.5 µg/mL (≈ 1.56 µM) with A549; 0.06 µg/mL (≈ 0.187 µM) with HCT-8 [9]; 7 µg/mL (≈ 21.8 µM) in the assay on HOS [10]; 0.09 µg/mL (≈ 0.28 µM) with 1A9 [11]; 0.23 µg/mL (≈ 0.716 µM) with KB [12]; 0.22 µg/mL (≈ 0.685 µM) with MCF7. Moreover, the ED50 in the assay with PC-3 [5] came to 15 µg/mL (≈ 46.7 µM); in the assay with SK-MEL-2 [13], 0.09 µg/mL (≈ 0.28 µM); in the assay on KB [8] it was 0.1 µg/mL (≈ 0.311 µM). Besides, the inhibition on Tubulin (Bos taurus) amounted to 24%.
As for `COc1cc(OC)cc(-c2nc(O)c3ccccc3n2)c1`, the ED50 in the assay on A549, in the assay with MCF7, in the assay on PC-3 [5], in the assay on SK-MEL-2 [13] and with KB [8] was over 20 µg/mL in each case. The ED50 entry in the assay with HCT-8 [1], in the assay on HOS [2], with 1A9 [3], with KB [4] and with U-87 MG [7] was “inactive” throughout.
